Legend:
Type in all cases: cell-based
AXL = AXL (Homo sapiens (Human), UniProt P30530); assay: AXL autophosphorylation ELISA in A-172 cells; details: cellular, Gas6 stimulated
Method: A-172 glioblastoma cells (ATCC #CRL-1620) were seeded at 2.5×10^5 cells/well onto 24-well plates (Greiner #662165), in DMEM (Thermo Fisher #11995-040) containing 10% FBS (Thermo Fisher #26140-079), 1% MEM NEAA (Thermo Fisher #11140-050), 1% GlutaMax (Thermo Fisher #35050-061) and 1% Penicillin Streptomycin (Thermo Fisher #15140-122). A-172 cells were incubated at 37° C., 5% CO2 for 24 h and then starved for 24 h in serum-free medium. Test compounds were serially diluted to produce an 8-point dose curve in fresh serum-free medium to a final concentration of 0.3% DMSO (vehicle) and added to the cells and incubated for 1 h. Cells were then stimulated with 1 μg/mL recombinant human Gas6 (R&D Systems #885-GSB-500) for 15 min, washed with cold PBS and immediately lysed with 150 μL of cold 1× lysis buffer [20 mM Tris, 137 mM sodium chloride, 2 mM EDTA, 10% glycerol, 1% NP-40 alternative, 1 mM activated sodium orthovanadate, 1 mM PefaBloc SC (Sigma-Aldrich #11429868001), protease/phosphatase inhibitor tablet (Thermo Fisher #A32959)]. Lysates were collected and 100 μL/well added into the human phospho-AXL DuoSet IC ELISA (R&D Systems #DYC2228-2). Assay was performed according to manufacturer's instructions and sample phospho-AXL concentrations were extrapolated using human phospho-AXL control (R&D Systems #841645) as a standard. Positive control wells (100% activity) contained Gash-stimulated, DMSO-treated cell lysates. Negative control wells (0% activity) contained Gash-stimulated, reference inhibitor-treated cell lysates. IC50 values were calculated by nonlinear regression analysis using a 4-parameter logistic curve fit in ActivityBase XE (IDBS).

KDR = KDR (Homo sapiens (Human), UniProt P35968); assay: KDR autophosphorylation ELISA in HUVEC cells; details: cellular, VEGF165 stimulated
Sequence of KDR (P35968 20-1356): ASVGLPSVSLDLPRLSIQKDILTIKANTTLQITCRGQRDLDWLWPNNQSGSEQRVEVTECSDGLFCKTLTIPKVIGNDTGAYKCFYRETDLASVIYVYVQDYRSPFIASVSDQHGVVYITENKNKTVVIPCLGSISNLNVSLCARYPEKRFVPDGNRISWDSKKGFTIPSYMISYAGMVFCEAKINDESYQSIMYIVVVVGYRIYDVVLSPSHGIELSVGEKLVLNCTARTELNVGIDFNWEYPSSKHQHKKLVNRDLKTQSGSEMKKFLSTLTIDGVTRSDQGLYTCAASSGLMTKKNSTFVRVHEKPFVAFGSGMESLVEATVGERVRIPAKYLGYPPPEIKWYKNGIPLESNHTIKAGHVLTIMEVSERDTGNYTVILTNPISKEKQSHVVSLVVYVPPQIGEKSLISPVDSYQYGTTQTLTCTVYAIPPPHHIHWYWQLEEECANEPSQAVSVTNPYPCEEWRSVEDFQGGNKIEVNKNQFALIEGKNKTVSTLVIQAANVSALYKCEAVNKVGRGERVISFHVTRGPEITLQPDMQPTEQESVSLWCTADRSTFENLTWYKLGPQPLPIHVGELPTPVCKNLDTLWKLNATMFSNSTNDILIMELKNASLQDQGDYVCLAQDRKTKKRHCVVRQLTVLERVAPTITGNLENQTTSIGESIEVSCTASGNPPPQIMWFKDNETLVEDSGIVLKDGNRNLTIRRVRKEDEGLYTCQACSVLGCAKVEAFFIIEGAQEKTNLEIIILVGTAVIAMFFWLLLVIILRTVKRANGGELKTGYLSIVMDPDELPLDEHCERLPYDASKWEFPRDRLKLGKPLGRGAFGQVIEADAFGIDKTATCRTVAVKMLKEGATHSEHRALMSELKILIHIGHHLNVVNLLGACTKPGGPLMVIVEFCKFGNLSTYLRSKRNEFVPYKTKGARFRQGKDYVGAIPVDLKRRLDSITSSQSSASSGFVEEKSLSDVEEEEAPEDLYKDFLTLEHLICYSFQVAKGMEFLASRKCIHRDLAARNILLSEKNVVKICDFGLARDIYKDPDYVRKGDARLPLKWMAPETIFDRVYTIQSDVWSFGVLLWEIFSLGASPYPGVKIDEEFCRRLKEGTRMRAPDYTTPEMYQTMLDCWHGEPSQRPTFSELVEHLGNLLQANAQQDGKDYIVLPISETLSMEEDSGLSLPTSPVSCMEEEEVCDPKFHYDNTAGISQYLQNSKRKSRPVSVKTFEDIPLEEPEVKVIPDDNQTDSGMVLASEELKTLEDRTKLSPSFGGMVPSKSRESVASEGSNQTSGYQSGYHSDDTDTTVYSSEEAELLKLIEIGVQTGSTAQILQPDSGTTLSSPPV
Method: Human umbilical vein endothelial cells or HUVEC (Lonza #C2519A) were seeded at 2×10^4 cells/well onto 96-well plates (Corning #3904), in EGM-2 growth medium (Lonza #CC-3162) containing 1% Penicillin Streptomycin (Thermo Fisher #15140-122). HUVEC cells were incubated at 37° C., 5% CO2 for 24 h and then starved for 24 h in serum-free EBM-2 basal medium (Lonza #CC-3156) containing 1% Penicillin Streptomycin. Test compounds were serially diluted to produce an 8-point dose curve in fresh serum-free medium to a final concentration of 0.3% DMSO (vehicle) and added to the cells and incubated for 1 h. Cells were then stimulated with 100 ng/mL recombinant human VEGF165 (R&D Systems #293-VE-500) for 5 min, washed with cold PBS, and immediately lysed with 130 μL of cold 1× lysis buffer [20 mM Tris, 137 mM sodium chloride, 2 mM EDTA, 10% glycerol, 1% NP-40 alternative, 1 mM activated sodium orthovanadate, 1 mM PefaBloc SC (Sigma-Aldrich #11429868001), protease/phosphatase inhibitor tablet (Thermo Fisher #A32959)]. Lysates were collected and 100 μL/well added into the human phospho-KDR DuoSet IC ELISA (R&D Systems #DYC1766-2). Assay was performed according to manufacturer's instructions and sample phospho-KDR concentrations were extrapolated using human phospho-KDR control (R&D Systems #841421) as a standard. Positive control wells (100% activity) contained VEGF165-stimulated, DMSO-treated cell lysates. Negative control wells (0% activity) contained non-stimulated cell lysates. IC50 values were calculated by nonlinear regression analysis using a 4-parameter logistic curve fit in ActivityBase XE (IDBS).

Met = Met (Homo sapiens (Human), UniProt P08581); assay: Met autophosphorylation ELISA in PC-3 cells; details: cellular, HGF stimulated, read-out: c-Met IC50
Sequence of Met (P08581 25-1390): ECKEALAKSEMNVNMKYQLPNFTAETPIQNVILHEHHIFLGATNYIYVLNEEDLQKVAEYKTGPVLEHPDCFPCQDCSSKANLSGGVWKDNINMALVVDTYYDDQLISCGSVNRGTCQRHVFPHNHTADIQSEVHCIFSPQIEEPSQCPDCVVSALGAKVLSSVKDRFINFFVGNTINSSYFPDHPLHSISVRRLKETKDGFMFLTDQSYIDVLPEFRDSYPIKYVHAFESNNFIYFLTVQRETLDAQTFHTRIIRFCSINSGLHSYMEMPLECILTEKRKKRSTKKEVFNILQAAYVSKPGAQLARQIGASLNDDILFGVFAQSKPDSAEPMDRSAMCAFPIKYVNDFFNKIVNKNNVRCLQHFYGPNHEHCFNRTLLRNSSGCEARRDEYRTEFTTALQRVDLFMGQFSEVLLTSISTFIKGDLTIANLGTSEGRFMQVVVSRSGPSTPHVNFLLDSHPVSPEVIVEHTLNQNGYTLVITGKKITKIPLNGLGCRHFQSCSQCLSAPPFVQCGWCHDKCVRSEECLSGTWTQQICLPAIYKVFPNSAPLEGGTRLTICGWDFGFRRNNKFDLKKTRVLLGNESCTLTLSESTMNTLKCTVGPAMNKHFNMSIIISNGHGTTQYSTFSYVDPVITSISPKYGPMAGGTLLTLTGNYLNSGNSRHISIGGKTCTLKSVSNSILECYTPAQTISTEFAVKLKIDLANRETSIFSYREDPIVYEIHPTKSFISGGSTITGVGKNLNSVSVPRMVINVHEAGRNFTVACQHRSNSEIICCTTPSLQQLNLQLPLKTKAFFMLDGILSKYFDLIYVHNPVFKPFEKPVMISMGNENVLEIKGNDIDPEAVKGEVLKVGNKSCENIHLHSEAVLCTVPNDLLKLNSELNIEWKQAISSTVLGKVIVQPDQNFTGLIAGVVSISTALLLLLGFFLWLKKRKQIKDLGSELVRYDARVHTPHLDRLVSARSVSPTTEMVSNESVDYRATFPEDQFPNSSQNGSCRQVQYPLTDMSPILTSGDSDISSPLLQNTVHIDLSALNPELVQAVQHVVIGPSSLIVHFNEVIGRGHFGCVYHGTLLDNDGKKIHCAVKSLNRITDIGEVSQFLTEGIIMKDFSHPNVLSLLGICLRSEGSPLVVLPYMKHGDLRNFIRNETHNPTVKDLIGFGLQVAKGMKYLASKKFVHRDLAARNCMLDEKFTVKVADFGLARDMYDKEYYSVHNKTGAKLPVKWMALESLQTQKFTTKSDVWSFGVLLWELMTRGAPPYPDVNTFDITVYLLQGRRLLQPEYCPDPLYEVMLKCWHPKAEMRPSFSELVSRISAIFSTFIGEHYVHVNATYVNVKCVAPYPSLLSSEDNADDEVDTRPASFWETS
Method: PC-3 prostate cancer cells (ATCC #CRL-1435) were seeded at 4×10^4 cells/well onto 24-well plates (Greiner #662165), in DMEM (Thermo Fisher #11995-040) containing 10% FBS (Thermo Fisher #26140-079), 1% MEM NEAA (Thermo Fisher #11140-050), 1% GlutaMax (Thermo Fisher #35050-061), and 1% Penicillin Streptomycin (Thermo Fisher #15140-122). PC-3 cells were incubated at 37° C., 5% CO2 for 24 h and then starved for 3 h in serum-free medium. Test compounds were serially diluted to produce an 8-point dose curve in fresh serum-free medium to a final concentration of 0.3% DMSO (vehicle) and added to the cells and incubated for 1 h. Cells were then stimulated with 100 ng/mL recombinant human HGF (R&D Systems #294-HG-250) for 10 min, washed with cold PBS and immediately lysed with 130 μL of cold 1× lysis buffer [20 mM Tris, 137 mM sodium chloride, 2 mM EDTA, 10% glycerol, 1% NP-40 alternative, 1 mM activated sodium orthovanadate, 1 mM PefaBloc SC (Sigma-Aldrich #11429868001), protease/phosphatase inhibitor tablet (Thermo Fisher #A32959)]. Lysates were clarified by centrifugation and 100 μL/well added into the PathScan phospho-Met (panTyr) Sandwich ELISA (Cell Signaling Technology #7333). Assay was performed according to manufacturer's instructions. Positive control wells (100% activity) contained HGF-stimulated, DMSO-treated cell lysates. Negative control wells (0% activity) contained HGF-stimulated, reference inhibitor-treated cell lysates. IC50 values were calculated by nonlinear regression analysis using a 4-parameter logistic curve fit in ActivityBase XE (IDBS).

Sequence of AXL (P30530 26-894): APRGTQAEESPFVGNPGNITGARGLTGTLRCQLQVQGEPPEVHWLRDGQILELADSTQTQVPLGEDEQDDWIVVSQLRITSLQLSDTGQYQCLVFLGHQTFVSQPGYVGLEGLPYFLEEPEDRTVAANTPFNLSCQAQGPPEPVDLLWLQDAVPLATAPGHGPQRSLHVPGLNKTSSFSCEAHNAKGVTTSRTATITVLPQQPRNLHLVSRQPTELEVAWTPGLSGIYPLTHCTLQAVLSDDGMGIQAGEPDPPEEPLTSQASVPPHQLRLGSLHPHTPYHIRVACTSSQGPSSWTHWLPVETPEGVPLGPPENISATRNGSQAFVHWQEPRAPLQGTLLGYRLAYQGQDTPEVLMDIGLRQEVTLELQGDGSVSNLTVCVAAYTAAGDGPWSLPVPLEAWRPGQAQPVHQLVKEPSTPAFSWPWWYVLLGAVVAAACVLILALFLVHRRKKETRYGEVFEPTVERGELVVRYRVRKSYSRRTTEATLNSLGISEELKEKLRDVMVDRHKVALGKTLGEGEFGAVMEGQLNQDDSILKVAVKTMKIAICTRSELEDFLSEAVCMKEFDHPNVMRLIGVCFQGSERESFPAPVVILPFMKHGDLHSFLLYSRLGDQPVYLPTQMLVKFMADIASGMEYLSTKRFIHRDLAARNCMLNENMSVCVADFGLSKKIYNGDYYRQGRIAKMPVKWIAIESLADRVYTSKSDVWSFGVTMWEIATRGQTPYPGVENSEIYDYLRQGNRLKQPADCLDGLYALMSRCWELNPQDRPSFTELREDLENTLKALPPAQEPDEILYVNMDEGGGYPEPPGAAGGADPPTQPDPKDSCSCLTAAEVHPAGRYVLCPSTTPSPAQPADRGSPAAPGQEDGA

Row | IC50 (AXL) | IC50 (KDR) | IC50 (Met) | Compound
1 | 100 to 300 nM | 100 to 300 nM | 100 to 300 nM | CO/N=C(\C)c1cc2c(Oc3ccc(NC(=O)C4(C(=O)Nc5ccc(F)cc5)CC4)cc3)ccnc2cc1OC [Compound 35, 1-N′-(4-fluorophenyl)-1-N-[4-[7-methoxy-6-[(E)-N-methoxy-C-methylcarbonimidoyl]quinolin-4-yl]oxyphenyl]cyclopropane-1,1-dicarboxamide]
2 | 100 to 300 nM | > 300 nM | 100 to 300 nM | CO/N=C(/C)c1cc2c(Oc3ccc(NC(=O)C4(C(=O)Nc5ccc(F)cc5)CC4)cc3)ccnc2cc1OC [Compound 36, 1-N′-(4-fluorophenyl)-1-N-[4-[7-methoxy-6-[(Z)-N-methoxy-C-methylcarbonimidoyl]quinolin-4-yl]oxyphenyl]cyclopropane-1,1-dicarboxamide]
3 | 10 to 100 nM | 10 to 100 nM | 10 to 100 nM | COCCNc1cc2nccc(Oc3ccc(NC(=O)C4(C(=O)Nc5ccc(F)cc5)CC4)cc3)c2cc1C(N)=O [Compound 70, 1-N-[4-[6-Carbamoyl-7-(2-methoxyethylamino)quinolin-4-yl]oxyphenyl]-1-N′-(4-fluorophenyl)cyclopropane-1,1-dicarboxamide]
4 | > 300 nM | > 300 nM | > 300 nM | CNc1cc2nccc(Oc3ccc(NC(=O)C4(C(=O)Nc5ccc(F)cc5)CC4)cc3)c2cc1C(=O)O [Compound 81, 4-[4-[[1-[(4-Fluorophenyl)carbamoyl]cyclopropane-carbonyl]amino]phenoxy]-7-(methylamino)quinoline-6-carboxylic Acid]
5 | 10 to 100 nM | 10 to 100 nM | 10 to 100 nM | CNc1cc2nccc(Oc3ccc(NC(=O)C4(C(=O)Nc5ccc(F)cc5)CC4)cc3)c2cc1C(N)=O [Compound 82, 1-N-[4-[6-Carbamoyl-7-(methylamino)quinolin-4-yl]oxyphenyl]-1-N′-(4-fluorophenyl)cyclopropane-1,1-dicarboxamide]
6 | 10 to 100 nM | 10 to 100 nM | 10 to 100 nM | CNC(=O)c1cc2c(Oc3ccc(NC(=O)C4(C(=O)Nc5ccc(F)cc5)CC4)cc3)ccnc2cc1NC [Compound 83, 1-N′-(4-Fluorophenyl)-1-N-[4-[7-(methylamino)-6-(methylcarbamoyl)quinolin-4-yl]oxyphenyl]cyclopropane-1,1-dicarboxamide]
7 | ≤ 10 nM | ≤ 10 nM | 10 to 100 nM | CNc1cc2nccc(Oc3ccc(NC(=O)C4(C(=O)Nc5ccc(F)cc5)CC4)cc3)c2cc1C(=O)OC [Compound 84, Methyl 4-[4-[[1-[(4-fluorophenyl)carbamoyl]cyclopropane-carbonyl]amino]phenoxy]-7-(methylamino)quinoline-6-carboxylate]
8 | 100 to 300 nM | > 300 nM | 100 to 300 nM | NC(=O)c1cc2c(Oc3ccc(NC(=O)C4(C(=O)Nc5ccc(F)cc5)CC4)cc3)ccnc2cc1N [Compound 87, 1-N-[4-(7-Amino-6-carbamoylquinolin-4-yl)oxyphenyl]-1-N′-(4-fluorophenyl)cyclopropane-1,1-dicarboxamide]
9 | 100 to 300 nM | > 300 nM | 100 to 300 nM | CNC(=O)c1cc2c(Oc3ccc(NC(=O)C4(C(=O)Nc5ccc(F)cc5)CC4)cc3)ccnc2cc1N [Compound 88, 1-N-[4-[7-Amino-6-(methylcarbamoyl)quinolin-4-yl]oxyphenyl]-1-N′-(4-fluorophenyl)cyclopropane-1,1-dicarboxamide]
10 | > 300 nM | > 300 nM | > 300 nM | Nc1cc2nccc(Oc3ccc(NC(=O)C4(C(=O)Nc5ccc(F)cc5)CC4)cc3)c2cc1C(=O)O [Compound 89, 7-Amino-4-[4-[[1-[(4-fluorophenyl)carbamoyl]cyclopropane-carbonyl]amino]phenoxy]quinoline-6-carboxylic Acid]
11 | 10 to 100 nM | 10 to 100 nM | 10 to 100 nM | COC(=O)c1cc2c(Oc3ccc(NC(=O)C4(C(=O)Nc5ccc(F)cc5)CC4)cc3)ccnc2cc1N [Compound 90, Methyl 7-amino-4-[4-[[1-[(4-fluorophenyl)carbamoyl]-cyclopropanecarbonyl]amino]phenoxy]quinoline-6-carboxylate]
12 | 10 to 100 nM | 100 to 300 nM | 100 to 300 nM | CC1NC(=O)c2cc3c(Oc4ccc(NC(=O)C5(C(=O)Nc6ccc(F)cc6)CC5)cc4)ccnc3cc2O1 (stereo not drawn) [Compound 92, 1-N′-(4-Fluorophenyl)-1-N-[4-[(2-methyl-4-oxo-2,3-dihydropyrido[3,2-g][1,3]benzoxazin-6-yl)oxy]phenyl]cyclopropane-1,1-dicarboxamide]
13 | ≤ 10 nM | ≤ 10 nM | 10 to 100 nM | NC(=O)c1cc2c(Oc3ccc(NC(=O)C4(C(=O)Nc5ccc(F)cc5)CC4)cc3)ccnc2cc1OCCO [Compound 106, 1-N-[4-[6-Carbamoyl-7-(2-hydroxyethoxy)quinolin-4-yl]oxyphenyl]-1-N′-(4-fluorophenyl)cyclopropane-1,1-dicarboxamide]
14 | 10 to 100 nM | 100 to 300 nM | 10 to 100 nM | O=C(NOCCO)c1ccc2c(Oc3ccc(NC(=O)C4(C(=O)Nc5ccc(F)cc5)CC4)cc3)ccnc2c1 [Compound 166, 1-N′-(4-Fluorophenyl)-1-N-[4-[7-(2-hydroxyethoxycarbamoyl)-quinolin-4-yl]oxyphenyl]cyclopropane-1,1-dicarboxamide]
15 | 100 to 300 nM | 100 to 300 nM | 100 to 300 nM | O=C(NOC1COC1)c1ccc2c(Oc3ccc(NC(=O)C4(C(=O)Nc5ccc(F)cc5)CC4)cc3)ccnc2c1 [Compound 167, 1-N′-(4-Fluorophenyl)-1-N-[4-[7-(oxetan-3-yloxycarbamoyl)quinolin-4-yl]oxyphenyl]cyclopropane-1,1-dicarboxamide]
16 | 100 to 300 nM | 100 to 300 nM | > 300 nM | O=C(NOC[C@@H](O)CO)c1ccc2c(Oc3ccc(NC(=O)C4(C(=O)Nc5ccc(F)cc5)CC4)cc3)ccnc2c1 [Compound 170, 1-N-[4-[7-[[(2S)-2,3-Dihydroxypropoxy]carbamoyl]quinolin-4-yl]oxyphenyl]-1-N′-(4-fluorophenyl)cyclopropane-1,1-dicarboxamide]
17 | ≤ 10 nM | ≤ 10 nM | 10 to 100 nM | COc1cc2nccc(Oc3ccc(NC(=O)C4(C(=O)Nc5ccc(F)cc5)CC4)cc3)c2cc1-c1cn(C)cn1 [Compound 177, 1-N′-(4-Fluorophenyl)-1-N-[4-[7-methoxy-6-(1-methylimidazol-4-yl)quinolin-4-yl]oxyphenyl]cyclopropane-1,1-dicarboxamide]

Reference: patent US11542259B2, “Compounds for the treatment of kinase-dependent disorders” (Exelixis, Inc., priority 2018, dated 2023)
